From patent publication US20250195357A1, “CLEAR SCALP COMPOSITION WITH DISCRETE PARTICLES” (The Procter & Gamble Company, priority 2022, published 2025)

Assays:
[1] = Solubility of scalp actives; type: physicochemical
[2] = cited from earlier work

Row | SMILES | Oil solubility [1] | Solubility in water [2] | Water solubility ([1]; at pH of 4.8 and above)
1 | CC1CCC(C(C)C)C(O)C1 (stereo not shown) [menthol] | oil soluble | – | –
2 | Cc1cc(CC(C)CC(C)(C)C)n(O)c(=O)c1.NCCO (stereo not shown) [piroctone olamine] | oil soluble | very limited solubility | –
3 | O=C(O)c1ccccc1O [salicylic acid] | – | – | water soluble
